Assays:
FGF-1 = biological target: T1, FGF-1 (Homo sapiens, UniProt P05230); assay: FGF-1 induced sprouting of HUVEC, spheroid-based cellular angiogenesis assay; type: cell-based; conditions: FGF-1 25 ng/mL preincubated with compound, 24 h
T1 construct: purchased Peprotech 100-17A
Description: (§1) Aim of this in vitro method is to assess compounds effects on FGF-2, FGF-1, or VEGF-A induced sprouting of human umbilical vein endothelial cells (HUVEC) in the spheroid-based cellular angiogenesis assay. Before adding the growth factors to the cells, they were preincubated with the compound. Sunitinib was tested as a control (without preincubation).
(§2) IC50 values determined for the tested compounds are expressed in microM [μM] and the values for the inhibition of FGF-1, FGF2 and VEGF-A induced growth (sprouting) are listed after each compound in the examples after chemical characterization.
(§3) Sprouting test was performed on the compounds dissolved in DMSO to reach 100-fold concentrated stock solutions and dissolved in culture media. Sunitinib as reference compound was provided by ProQinase GmbH. Growth factors were purchased from rhFGF-basic (FGF-2), Peprotech, New Jersey, USA, #100-18C, Lot #0415571; rhFGF-acidic (FGF-1), Peprotech, New Jersey, USA, #100-17A, Lot #031207; hVEGF-A165 (ProQinase GmbH, Freiburg, Germany; 05.02.2010) were used for stimulation of HUVEC cells growth.
(§4) Test system: Endothelial cells from human umbilical vein (HUVEC) from pooled donors were stored frozen with 70% medium, 20% FCS, 10% DMSO at about 1×10^6 cells/ampoule. HUVEC cells, primary human umbilical vein endothelial cells (PromoCell, Heidelberg, Germany), were used after passage 3 to 4. Morphology of the cells are adherent, cobblestone-like growing as monolayer and were cultured in endothelial cell growth and basal medium (ECGM/ECBM, PromoCell). The subculture was split 1:3; every 3-5 days, seed out at ca. 1×10^4 cells/cm^2 and incubated at 37° C. with 5% CO2 with a doubling time 24-48 hours
(§5) Dilution of test compounds: 100× concentrated solutions (concerning to the final assay concentrations) of each test compound were prepared with the appropriate solvent (in DMSO or in water). These 100×compound solutions were further diluted in endothelial cell growth and basal medium (ECBM) 1:7.5 to get a 13.33× concentrated solution. 75 μl of the 13.33×solution was subsequently mixed with 25 μl of 40× concentrated stimulus (solved in ECBM), resulting in a 10×concentrated stimulus/compound mixture. This mixture (100 μl) was incubated for 30 min at 37° C. and then added to 900 μl gel, containing the HUVEC spheroids (resulting in the final assay concentration).
(§6) Test method: the experiments were pursued in modification of the originally published protocol (Korff and Augustin: J Cell Sci 112: 3249-58, 1999). In brief, spheroids were prepared as described (Korff and Augustin: J Cell Biol 143: 1341-52, 1998) by pipetting 400 HUVEC in a hanging drop on plastic dishes to allow overnight spheroid aggregation. 50 HUVEC spheroids were then seeded in 0.9 ml of a collagen gel and pipetted into individual wells of a 24 well plate to allow polymerization. The test compounds were preincubated with the growth factors (FGF-1, FGF-2 or VEGF-A final concentration 25 ng/mL) in a 10-fold concentrated solution and subsequently, 100 μl of this solution was added on top of the polymerized gel. All compounds were diluted in solvent (DMSO or water) as 100×stocks first (which means 100×stocks of each final assay concentration were prepared in solvent). Subsequently, these stocks were further diluted in medium (resulting in the 13.33×stocks of each final assay concentration) with final concentrations tested: 100, 50, 25, 12.5, 6.25, 3.13 and 1.56×10^−6 M). Plates were incubated at 37° C. for 24 hours and fixed by adding 4% PFA (Roth, Karlsruhe, Germany).
(§7) Quantification of growth factor inhibition: sprouting intensity of HUVEC spheroids treated with the growth factor and the inhibitors were quantitated by an image analysis system determining the cumulative sprout length per spheroid (CSL).

VEGFR-2 = biological target: T2, VEGFR-2 (Homo sapiens, UniProt P35968); assay: VEGF-165 induced phosphorylation of VEGF-Receptor on HUVEC; type: cell-based; conditions: HUVEC preincubated 60 min, VEGF165 25 ng/mL 2 min; read-out: VEGFR-Phosphorylation inhibition IC50
T2 construct: endogenous in cells; host or cells: primary HUVEC
T2 sequence (P35968 20-1356): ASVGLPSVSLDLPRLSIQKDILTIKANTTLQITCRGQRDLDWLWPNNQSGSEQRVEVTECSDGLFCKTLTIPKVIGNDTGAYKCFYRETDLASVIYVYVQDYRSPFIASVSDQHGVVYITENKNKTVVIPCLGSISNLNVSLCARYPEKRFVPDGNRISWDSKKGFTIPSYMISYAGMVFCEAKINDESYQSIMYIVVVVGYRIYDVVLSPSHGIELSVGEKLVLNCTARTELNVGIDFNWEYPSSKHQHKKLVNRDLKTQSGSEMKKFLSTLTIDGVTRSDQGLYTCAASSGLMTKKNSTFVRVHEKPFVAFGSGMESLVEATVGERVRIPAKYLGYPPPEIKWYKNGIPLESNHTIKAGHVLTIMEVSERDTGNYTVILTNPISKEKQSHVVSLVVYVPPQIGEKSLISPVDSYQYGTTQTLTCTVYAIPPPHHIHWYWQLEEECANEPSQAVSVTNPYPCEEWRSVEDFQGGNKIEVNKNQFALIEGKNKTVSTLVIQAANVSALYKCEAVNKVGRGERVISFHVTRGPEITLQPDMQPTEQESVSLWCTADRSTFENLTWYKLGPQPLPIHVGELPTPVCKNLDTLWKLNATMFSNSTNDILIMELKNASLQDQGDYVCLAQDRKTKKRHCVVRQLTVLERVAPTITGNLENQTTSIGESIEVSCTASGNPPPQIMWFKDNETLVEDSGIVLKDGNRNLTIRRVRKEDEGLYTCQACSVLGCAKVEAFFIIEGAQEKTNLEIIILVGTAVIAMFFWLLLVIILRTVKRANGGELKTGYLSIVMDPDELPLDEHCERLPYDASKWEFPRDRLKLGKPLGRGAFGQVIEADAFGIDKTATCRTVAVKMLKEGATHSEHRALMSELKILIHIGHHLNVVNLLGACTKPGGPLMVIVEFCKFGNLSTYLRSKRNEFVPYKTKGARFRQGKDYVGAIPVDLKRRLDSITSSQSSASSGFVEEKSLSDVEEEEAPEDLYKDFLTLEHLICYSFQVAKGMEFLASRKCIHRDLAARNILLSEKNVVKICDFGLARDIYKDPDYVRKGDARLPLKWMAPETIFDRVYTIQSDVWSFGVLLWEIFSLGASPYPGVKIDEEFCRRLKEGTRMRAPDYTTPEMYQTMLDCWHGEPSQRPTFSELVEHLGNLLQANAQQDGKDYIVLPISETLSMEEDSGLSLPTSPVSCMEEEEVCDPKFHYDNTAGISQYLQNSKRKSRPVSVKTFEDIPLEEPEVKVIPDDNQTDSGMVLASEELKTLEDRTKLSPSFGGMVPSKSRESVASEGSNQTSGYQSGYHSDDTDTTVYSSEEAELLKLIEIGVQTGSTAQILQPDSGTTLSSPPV
Description: Cell culture: Primary human umbilical vein endothelial cells (HUVECs) were routinely cultured in 0.1% gelatin pre-coated flasks or dishes, up to passage 6. […]
Rabbit primary antibodies for VEGFR-2, p-Tyr1175 were acquired from Cell Signaling Technology (Leiden, The Netherlands). Phospho-VEGFR-2 (Tyr1175) Sandwich ELISA Kit was from Cell Signaling Technology.
[…] Western blot analysis was performed using anti-phospho-VEGFR-2 antibody and total VEGFR-2 was used as a loading control after membrane stripping.
Inhibition of VEGFR-2-phosphorylation results are expressed as IC50 in microM [μM] versus VEGF-treated HUVECs control without inhibitory compound.

Human neutrophils [1] = assay: Neutrophil adhesion under static conditions; type: cell-based; conditions: fMLP-stimulated adhesion to fibrinogen; method: 40 μM and 80 μM, concentration of the value not stated
Description: Human neutrophils obtained from buffy coats of healthy donors were suspended at 3×10^6/ml in adhesion buffer (PBS containing 1 mM CaCl2)/MgCl2 and 10% FCS, pH 7.2). Neutrophils were preincubated for 30 min at 37° C. with 40 μM and 80 μM of the compounds.
Adhesion assays were performed on 18-well glass slides coated for 18 h at 4° C. with human fibrinogen (20 μg/well in endotoxin-free PBS); 20 μl of cell suspension were added to each well and stimulated for 1 min at 37° C. with 5 μl of fMLP 1 nM final concentration. After washing, adherent cells were fixed in glutaraldehyde 1.5% in PBS and counted by computer-assisted enumeration. Statistical analysis was performed by calculating mean and standard deviation (SD); significance was calculated by unpaired t-test. All statistical analyses were performed using GraphPad Prism 6 (GraphPad Software).

Human neutrophils [2] = assay: Inhibition of ROS production in human neutrophils (isoluminol chemiluminescence); type: cell-based; conditions: fMLP+TNF-α stimulated PMN; for inhibition at 0.3 µM / IC50: Homo sapiens, Neutrophil
Excerpt: NADPH oxidase, located in the plasma membrane and in the membranes of specific granules, produces superoxide anions from which other ROS, such as hydrogen peroxide, singlet oxygen, hypochlorite, and active hydroxyl radicals. ROS are released into the surrounding medium or into a membrane-enclosed subcellular organelle. One quick and sensitive method for measuring the generation of these metabolites is chemiluminescence (CL). Isoluminol amplified CL technique, is very sensitive and widely used to study respiratory burst (mainly extracellular production of ROS) induced in neutrophils.
Human neutrophils were isolated from buffy coats which obtained from healthy donors. The isolated neutrophils (3×10^6/ml) were suspended in Hanks' Balanced Salt Solution (HBSS) with Calcium and Magnesium. Neutrophils were pre-incubated with the compounds at different concentrations (0.1, 0.3, 1, 3 and 10 μM) for 30 min at 37° C. The black 96-well cell culture plates were coated with human fibrinogen (0.25 mg/ml in PBS), and incubated overnight at 4° C. or 2 hr at 37° C. Then the plates were washed with endotoxin-free PBS. The neutrophils were incubated (priming) with TNF-α (20 ng/ml) for 10 minutes at 37° C. Thereupon the 75 μl of cell suspension and 75 μl (Isoluminol+HRP solution) were added to each well. The chemiluminescence was recorded (every 25 sec for 250 sec) after fMLP (1 μM) activation using a Multilabel Reader victor3 (Perkin Elmer, USA). Background values, defined as the mean chemiluminescent values of isoluminol diluted in HBSS, were subtracted from all readings (CPS, count per second). The assays were done in duplicate or triplicate.

FGF-2 = biological target: T3, FGF-2 (Homo sapiens, UniProt P09038); assay: FGF-2 induced sprouting of HUVEC, spheroid-based cellular angiogenesis assay; type: cell-based; conditions: FGF-2 25 ng/mL preincubated with compound, 24 h
T3 construct: purchased Peprotech 100-18C
T3 sequence (P09038 134-288): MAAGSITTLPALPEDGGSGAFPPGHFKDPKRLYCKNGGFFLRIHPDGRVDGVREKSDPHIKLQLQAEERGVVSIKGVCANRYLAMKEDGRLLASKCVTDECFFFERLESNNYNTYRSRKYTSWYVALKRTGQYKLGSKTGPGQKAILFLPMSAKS
Description: as §1, §2, §3, §4, §5, §6, §7

[3] = system: STZ-induced diabetes model; assay: STZ-induced diabetic nephropathy, kidney disease and retinopathy model (28 days treatment)
Description: A total of 70 female CD-1 mice aged 5-7 weeks weighing approximately 25-30 g were used for the study. These were purchased from Charles River, UK and had 7 days acclimatization period. Animals were housed in IVC cages (up to 5 per cage) with individual mice identified by tail mark. All animals were allowed free access to a standard certified commercial diet and sanitised water during the study. The holding room was maintained under standard conditions: 18-24° C., 55-70% humidity and a 12 h light/dark cycle.
Mice were starved for 6 hours prior to injection. One week after completion of induction glucose levels were monitored and mice with levels less than 15 mml/L (280 mg/gL) were removed from the study as they had not developed the ideal severity of diabetes. Glucose levels were be monitored weekly and 5 weeks after STZ induction biochemical assessment of renal injury was carried out by measuring urine albumin and creatinine levels and confirming they were within the desired range. After successful completion of this stage animals were assigned to treatment groups.
Treatment continued for 4 weeks (28 days) with weekly measurement of blood glucose and urine albumin/creatinine. The study schedule is detailed below looking at weekly (week 5 to 9) blood glucose levels, urine albumin creatinie ratios, and terminal (week 9) blood chemistry and cytokines, kidney histology and eye-retinal leakage.
Urine Albumin: Creatinine (ALB: CRE): Urine was collected weekly and pooled for each treatment group.
ELISAs: At the end of the treatment period blood was collected and processed to serum. Serum levels of CRP, TGF-β, IL-6 and TNF-α were quantified using commercially available ELISA kits, results are shown in Table 56.

[4] = day 28 of treatment (week 9), 15 mg/kg IV, Captopril 50 mg/kg PO
[5] = day 28 of treatment (week 9), serum, 15 mg/kg IV, Captopril 50 mg/kg PO

T1 sequence (P05230 whole entry): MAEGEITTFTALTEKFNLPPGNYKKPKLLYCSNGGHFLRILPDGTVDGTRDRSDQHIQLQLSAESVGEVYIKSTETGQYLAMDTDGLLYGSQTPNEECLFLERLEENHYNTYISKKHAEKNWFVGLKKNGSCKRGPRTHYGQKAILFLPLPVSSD

| IC50 (FGF-1) [µM] | IC50 (VEGFR-2) [µM] | IC50 (FGF-2) [µM] | SMILES | Neutrophil adhesion inhibition (Human neutrophils [1]) [%] | inhibition at 0.3 µM (Human neutrophils [2]; 0.3 μM) [%] | also measured |
| --- | --- | --- | --- | --- | --- | --- |
| 12 |  | 34 | O=C(O)c1ccc(NC(=O)c2cc(O)c(C(=O)O)cc2O)cc1 [Ia-003a, 4-(4-carboxyphenyl-aminocarbonyl)-2,5-dihydroxybenzoic acid] | 39.1 | 44.4 | IC50 (Human neutrophils [2]): 0.414 µM |
| 115 | 0.33 |  | CCOC(=O)c1cc(O)c(-c2nc3c(C(=O)OC)cccc3[nH]2)cc1O [Id-030a-E2] | 43 |  | PMN ROS inhibition at 0.3 μM (Human neutrophils [2]; 0.3 μM): 0% |
| ≥ 200 | 0.32 |  | CCOC(=O)Cc1cc(O)c(C(=O)Nc2ccccc2-c2nnn[nH]2)cc1O [IIIa-001aTz-E1, ethyl (4-(2-(1H-tetrazol-5-yl)phenylaminocarbonyl)-2,5-dihydroxyphenyl)acetate] | 91.76 | 70 |  |
|  |  | 71 | O=C(O)c1cc(O)cc(C(=O)Nc2ccccc2S(=O)(=O)O)c1O [IIa-001c, 2,5-dihydroxy-3-(2-sulfophenylaminocarbonyl)benzoic acid] | 43.53 | 72.6 |  |
| 35 | 0.4 |  | O=C(O)c1cc(O)c(C(=O)Nc2ccc(S(=O)(=O)O)cc2)cc1O [Ia-003c, 2,5-dihydroxy-4-(4-sulfophenylaminocarbonyl)benzoic acid] |  |  |  |
| 14 | ≥ 100 |  | O=C(O)c1cc(O)c(C(=O)Nc2cccc(S(=O)(=O)O)c2)cc1O [Ia-002c, 2,5-dihydroxy-4-(3-sulfophenylaminocarbonyl)benzoic acid] | 1.87 | 38.9 | IC50 (Human neutrophils [2]): 0.405 µM |
|  |  | 125 | O=C(O)c1cc(NC(=O)c2cc(O)cc(C(=O)O)c2O)cc(C(=O)O)c1 [IIa-015a, 5-(3-carboxy-2,5-dihydroxybenzamido)isophthalic acid] |  |  |  |
|  |  | 164 | CCOC(=O)Cc1ccccc1NC(=O)c1cc(O)cc(C(=O)OCC)c1O [IIa-034a-E2, ethyl 3-(2-(ethoxycarbonylmethyl)phenylaminocarbonyl)-2,5-dihydroxybenzoate] | 11.86 | 68.7 |  |
|  | 0.65 |  | CCOC(=O)Cc1cc(O)c(C(=O)Nc2cc(NC(=O)c3cc(O)c(CC(=O)OCC)cc3O)cc(C(=O)OC)c2)cc1O [IIIb-010a-E3, methyl 3,5-bis(4-(ethoxycarbonylmethyl)-2,5-dihydroxybenzamido)benzoate] | 0 |  |  |
|  |  |  | C[C@H](CS)C(=O)N1CCC[C@H]1C(=O)O [Captopril, reference compound] |  |  | Serum CRP ([3]; 28 days of treatment, vs vehicle induced controls): significantly reduced; Mean day 0 blood glucose Concentration (mmol/L) (SD) ([3]; day 0, 15 mg/kg IV, Captopril 50 mg/kg PO): 23.7 (6.9) mmol/L; Mean day 28 blood glucose Concentration (mmol/L) (SD) ([3]; day 28, 15 mg/kg IV, Captopril 50 mg/kg PO): 32.2 (2.3) mmol/L; Blood BUN [3, 4]: 28.5 ± 7.6; Disease Score (kidney, H&E) [3, 4]: 6 ± 1; Eye area (retinal flatmount area covered by vasculature) [3, 4]: 11.8 ± 1.4; Trichrome staining (Kidney fibrosis) [3, 4]: 1.98 ± 0.47; Blood CRP [3, 5]: 4534 ± 821; Blood IL-6 [3, 5]: 125.56 ± 15.75; Blood TGF-beta [3, 5]: 14.55 ± 2.86; Blood TNF-alpha [3, 5]: 415 ± 51.7; Urine albumine creatinine ratio (ALB:CRE) ([3]; day 28 of treatment (week 9), urine pooled per group, 15 mg/kg IV, Captopril 50 mg/kg PO): 24.40 |
|  |  | 35 | O=C(O)c1cc(O)c(CNCc2cc(O)c(C(=O)O)cc2O)cc1O [IIIc-056a, Bis(4-carboxy-2,5-dihydroxyphenylmethyl)amine] | 35 | 90.1 |  |
|  | ≥ 100 | 91 | O=C(O)Cc1ccc(NC(=O)c2cc(O)c(C(=O)O)cc2O)cc1 [Ia-032a, 4-(4-(carboxymethyl)phenylaminocarbonyl)-2,5-dihydroxybenzoic acid] |  |  |  |
|  | 0.34 |  | CCOC(=O)c1cc(O)c(CN(Cc2cc(O)c(C(=O)OCC)cc2O)Cc2cc(O)c(C(=O)OCC)cc2O)cc1O [IIIc-061a-E3] | 10.4 |  |  |
| 19 |  | 131 | O=C(O)c1cccc(NC(=O)c2cc(O)cc(C(=O)O)c2O)c1 [IIa-002a, 3-(3-carboxyphenylaminocarbonyl)-2,5-dihydroxybenzoic acid] | 17.39 | 43.3 | IC50 (Human neutrophils [2]): 0.299 µM |

| SMILES | IC50 (FGF-1) [µM] | IC50 (VEGFR-2) [µM] | IC50 (FGF-2) [µM] | Neutrophil adhesion inhibition (Human neutrophils [1]) [%] | inhibition at 0.3 µM (Human neutrophils [2]; 0.3 μM) [%] | also measured |
| --- | --- | --- | --- | --- | --- | --- |
| CCOC(=O)c1cc(NC(=O)c2cc(OC(C)=O)c(C(=O)OCC)cc2OC(C)=O)cc(NC(=O)c2cc(OC(C)=O)c(C(=O)OCC)cc2OC(C)=O)c1 [Ib-010a-E3-A4, ethyl 3,5-bis(2,5-diacetoxy-4-ethoxycarbonylbenzoylamino)benzoate] | ≥ 200 | 0.54 |  | 96 | 54.9 | IC50 (Human neutrophils [2]): 1.49 µM |

— patent US20230150951A1, “2,5- OR 2,6-DISUBSTITUTED HYDROQUINONE DERIVATIVES WITH AT LEAST ONE CARBOXY, SULFO OR AMIDO GROUP USEFUL AS MEDICAMENTS” (OM PHARMA SA, priority 2020, published 2023)
